Test results taken from patent publication US20170190671A1, “BIS(ARYL)CATECHOL DERIVATIVES AS HERBICIDES” (E I DU PONT DE NEMOURS AND COMPANY, priority 2014, published 2017).

What was measured:
Assay in all cases: Test C preemergence
Type in all cases: in vivo
[1] = tested on: waterhemp (common waterhemp, Amaranthus rudis); conditions: Amaranthus tuberculatus, pre-emergence, scale 0 to 100, read-out: Plant response rating, Waterhemp
Procedure, shortened: (§1)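 Greenhouse test; preemergence to seeds in loam/sand soil, or postemergence spray to 2-18 cm, 1- to 4-leaf plants in peat/vermiculite medium; compound in non-phytotoxic solvent plus surfactant. Visual rating vs controls at 13-15 d, 0 = no effect, 100 = complete control.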

[2] = tested on: barnyardgrass (Echinochloa crus-galli); conditions: Echinochloa crus-galli, pre-emergence, read-out: Plant response rating, Barnyardgrass
Procedure, shortened: as §1

[3] = tested on: Italian ryegrass (Lolium multiflorum); conditions: Lolium multiflorum, pre-emergence, 336 h, scale 0 to 100, read-out: Plant response rating, Ryegrass, Italian
Procedure, shortened: as §1

[4] = tested on: galium (catchweed bedstraw, Galium aparine); conditions: Galium, pre-emergence, 336 h, scale 0 to 100, read-out: Plant response rating, Galium
Procedure, shortened: as §1

[5] = tested on: johnsongrass (Sorghum halepense); conditions: Sorghum halepense, pre-emergence, 336 h, scale 0 to 100, read-out: Plant response rating, Johnsongrass
Procedure, shortened: as §1

[6] = tested on: velvetleaf (Abutilon theophrasti); conditions: Abutilon theophrasti, pre-emergence, scale 0 to 100, read-out: Plant response rating, Velvetleaf
Procedure, shortened: as §1

[7] = tested on: winter wheat (Triticum aestivum); conditions: Triticum aestivum, pre-emergence, 336 h, scale 0 to 100, read-out: Plant response rating, Wheat
Procedure, shortened: as §1

[8] = tested on: lambsquarters (Chenopodium album); conditions: Chenopodium album, pre-emergence, 336 h, scale 0 to 100, read-out: Plant response rating, Lambsquarters
Procedure, shortened: as §1

corn (Zea mays) = conditions: Zea mays, pre-emergence, 336 h, scale 0 to 100
Procedure, shortened: as §1

[9] = tested on: ragweed (common ragweed, Ambrosia elatior); conditions: Ambrosia artemisiifolia, pre-emergence, 336 h, scale 0 to 100, read-out: Plant response rating, Ragweed
Procedure, shortened: as §1

[10] = tested on: pigweed (Amaranthus retroflexus); conditions: Amaranthus retroflexus, pre-emergence, 336 h, scale 0 to 100, read-out: Plant response rating, Pigweed
Procedure, shortened: as §1

[11] = tested on: morningglory (Ipomoea coccinea); conditions: Ipomoea, pre-emergence, 336 h, scale 0 to 100, read-out: Plant response rating, Morningglory
Procedure, shortened: as §1

[12] = tested on: large (Lg) crabgrass (Digitaria sanguinalis); conditions: Digitaria sanguinalis, pre-emergence, 336 h, scale 0 to 100, read-out: Plant response rating, Crabgrass, Large
Procedure, shortened: as §1

soybean (Glycine max) = conditions: Glycine max, pre-emergence, scale 0 to 100, read-out: Plant response rating, Soybean
Procedure, shortened: as §1

[13] = tested on: giant foxtail (Setaria faberii); conditions: Setaria faberi, pre-emergence, 336 h, scale 0 to 100, read-out: Plant response rating, Foxtail, Giant
Procedure, shortened: as §1

N#Cc1cccc(Oc2ncc(Cl)cn2)c1Oc1ncc(C(F)(F)F)cn1 [Compound 38, 3-[(5-chloro-2-pyrimidinyl)oxy]-2-[[5-(trifluoromethyl)-2-pyrimidinyl]oxy]-benzonitrile]
40%: pest or weed control at 16 g/ha ([11]; Preemergence, 16 g ai/ha)
30%: Corn plant response rating (crop injury, 0 = no effect, 100 = complete kill) at 31 g/ha (corn (Zea mays); 31 g ai/ha, preemergence)
60%: pest or weed control at 62 g/ha ([3]; 62 g ai/ha, preemergence) | plant injury at 62 g/ha (soybean (Glycine max); 62 g ai/ha, preemergence)
90%: pest or weed control at 125 g/ha ([3]; 125 g ai/ha, preemergence) | pest or weed control at 31 g/ha ([4]; 31 g ai/ha, preemergence) | pest or weed control at 31 g/ha ([6]; 31 g ai/ha, preemergence) | pest or weed control at 31 g/ha ([8]; 31 g ai/ha, preemergence) | pest or weed control at 125 g/ha ([9]; 125 g ai/ha, preemergence) | plant injury at 125 g/ha (soybean (Glycine max); 125 g ai/ha, preemergence)
50%: pest or weed control at 16 g/ha ([2]; Preemergence, 16 g ai/ha, scale 0 to 100 (0 no effect, 100 complete control))
98%: pest or weed control at 62 g/ha ([6]; 62 g ai/ha, preemergence) | pest or weed control at 125 g/ha ([8]; 125 g ai/ha, preemergence)
75%: pest or weed control at 62 g/ha ([9]; 62 g ai/ha, preemergence)
35%: plant injury at 125 g/ha ([7]; 125 g ai/ha, preemergence)
55%: plant injury at 31 g/ha (soybean (Glycine max); 31 g ai/ha, preemergence)
25%: pest or weed control at 31 g/ha ([9]; 31 g ai/ha, preemergence)
85%: pest or weed control at 31 g/ha ([2]; 31 g ai/ha, preemergence, scale 0 to 100) | pest or weed control at 31 g/ha ([5]; 31 g ai/ha, preemergence) | pest or weed control at 62 g/ha ([5]; 62 g ai/ha, preemergence) | pest or weed control at 16 g/ha ([8]; Preemergence, 16 g ai/ha) | pest or weed control at 16 g/ha ([13]; Preemergence, 16 g ai/ha)
15%: plant injury at 62 g/ha ([7]; 62 g ai/ha, preemergence)
10%: pest or weed control at 31 g/ha ([3]; 31 g ai/ha, preemergence) | Corn plant response rating (crop injury, 0 = no effect, 100 = complete kill) at 16 g/ha (corn (Zea mays); Preemergence, 16 g ai/ha)
100%: pest or weed control at 31 g/ha ([1]; 31 g ai/ha, preemergence) | pest or weed control at 62 g/ha ([1]; 62 g ai/ha, preemergence) | pest or weed control at 125 g/ha ([1]; 125 g ai/ha, preemergence) | pest or weed control at 16 g/ha ([1]; Preemergence, 16 g ai/ha) | pest or weed control at 62 g/ha ([2]; 62 g ai/ha, preemergence, scale 0 to 100) | pest or weed control at 125 g/ha ([2]; 125 g ai/ha, preemergence, scale 0 to 100) | pest or weed control at 62 g/ha ([4]; 62 g ai/ha, preemergence) | pest or weed control at 125 g/ha ([4]; 125 g ai/ha, preemergence) | pest or weed control at 125 g/ha ([5]; 125 g ai/ha, preemergence) | pest or weed control at 125 g/ha ([6]; 125 g ai/ha, preemergence) | pest or weed control at 31 g/ha ([10]; 31 g ai/ha, preemergence) | pest or weed control at 62 g/ha ([10]; 62 g ai/ha, preemergence) | pest or weed control at 125 g/ha ([10]; 125 g ai/ha, preemergence) | pest or weed control at 16 g/ha ([10]; Preemergence, 16 g ai/ha) | pest or weed control at 125 g/ha ([11]; 125 g ai/ha, preemergence) | pest or weed control at 31 g/ha ([12]; 31 g ai/ha, preemergence) | pest or weed control at 62 g/ha ([12]; 62 g ai/ha, preemergence) | pest or weed control at 125 g/ha ([12]; 125 g ai/ha, preemergence) | pest or weed control at 16 g/ha ([12]; Preemergence, 16 g ai/ha) | pest or weed control at 62 g/ha ([13]; 62 g ai/ha, preemergence) | pest or weed control at 125 g/ha ([13]; 125 g ai/ha, preemergence)
80%: pest or weed control at 16 g/ha ([4]; Preemergence, 16 g ai/ha) | pest or weed control at 31 g/ha ([11]; 31 g ai/ha, preemergence)
65%: Corn plant response rating (crop injury, 0 = no effect, 100 = complete kill) at 125 g/ha (corn (Zea mays); 125 g ai/ha, preemergence)
20%: plant injury at 16 g/ha (soybean (Glycine max); Preemergence, 16 g ai/ha)
95%: pest or weed control at 62 g/ha ([8]; 62 g ai/ha, preemergence) | pest or weed control at 62 g/ha ([11]; 62 g ai/ha, preemergence) | pest or weed control at 31 g/ha ([13]; 31 g ai/ha, preemergence)
45%: pest or weed control at 16 g/ha ([5]; Preemergence, 16 g ai/ha) | pest or weed control at 16 g/ha ([6]; Preemergence, 16 g ai/ha) | Corn plant response rating (crop injury, 0 = no effect, 100 = complete kill) at 62 g/ha (corn (Zea mays); 62 g ai/ha, preemergence)
0%: pest or weed control at 16 g/ha ([3]; Preemergence, 16 g ai/ha) | plant injury at 31 g/ha ([7]; 31 g ai/ha, preemergence) | plant injury at 16 g/ha ([7]; Preemergence, 16 g ai/ha) | pest or weed control at 16 g/ha ([9]; Preemergence, 16 g ai/ha)
